Assay results published in patent US20240262830A1, “IRE1A MODULATORS AND USES THEREOF” (Nimbus Iaso, Inc., priority 2020, published 2024).

Assays:
[1] = target: T1, truncated human IRE1a WT protein, containing the catalytic part (aa 547-977) (Homo sapiens, UniProt O75460); assay: IRE1a biochemical enzyme splice assay; details: 20 nM protein, 500 nM fluorescently quenched IRE1a substrate, 40 min at room temperature; read-out: EnzymeSplice_hIRE1a_IC50 (IC50)
T1 construct: containing the catalytic part (aa 547-977); made in house
T1 sequence (O75460 547-977): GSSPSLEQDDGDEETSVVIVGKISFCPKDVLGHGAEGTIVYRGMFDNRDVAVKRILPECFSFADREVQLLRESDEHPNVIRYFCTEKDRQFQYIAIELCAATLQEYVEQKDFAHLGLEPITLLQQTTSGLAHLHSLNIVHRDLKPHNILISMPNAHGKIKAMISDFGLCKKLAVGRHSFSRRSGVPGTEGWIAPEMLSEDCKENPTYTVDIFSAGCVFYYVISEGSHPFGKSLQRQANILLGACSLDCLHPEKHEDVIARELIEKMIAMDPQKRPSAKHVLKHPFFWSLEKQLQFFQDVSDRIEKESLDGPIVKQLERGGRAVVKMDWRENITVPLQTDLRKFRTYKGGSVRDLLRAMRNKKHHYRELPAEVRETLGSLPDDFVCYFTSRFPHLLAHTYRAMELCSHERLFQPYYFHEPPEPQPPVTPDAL
Description: A truncated human IRE1a WT protein, containing the catalytic part (aa 547-977) was expressed in baculovirus. The purified protein (20 nM) was incubated with a fluorescently quenched IRE1a substrate (500 nM; 5′/6-FAM-CAGUCCGCAGCACUG-BHQ-1/3′) and a titration of inhibitor, starting at 10 μM (final DMSO concentration=1%) for 40 min at room temperature in assay buffer. Reactions were carried out in a final volume of […] in a 384 well assay plate. The reaction was stopped, and the plate was spun for 1 minute at 1000 rpm. The fluorescence intensity of the IRE1a-substrate was measured using an fluorescent plate reader (Ex 485 nm/Em 535 nm, Perkin Elmer Envision).

hIRE1a = assay: XBP1-Luc cell assay; format: cell-based; details: Homo sapiens; HEK293-pLVX-XBP1.fluc-IRES-Puro cells, 600 nM Thapsigargin 1 hour, then inhibitor 6 hours; read-out: fLuc_XBP1_hIRE1a_HEK293_IC50 (IC50)
Description: HEK293-pLVX-XBP1.fluc-IRES-Puro cells (ChemPartner) were collected into DMEM (Invitrogen, 11995-065) with 10% FBS (BI, 04-002-1A). Cells were seeded at 1.5E4 cells/well in BioCoat Poly-D-Lysine Black/Clear flat bottom 96 well plate (Corning, 356640) and incubated overnight at 37° C. and 5% CO2. Cells were treated with 600 nM Thapsigargin (Sigma, T9033) for 1 hour at 37° C. and 5% CO2 prior to inhibitor addition. A titration of inhibitor, starting at 30 μM was added to wells for an additional 6 hours at 37° C. and 5% CO2. 100 μl of Steady-Glo Luciferase assay reagent (Promega, E2550) was added to plate and the plate was shaken for 2 minutes. Signal was read using EnSpire (Perkin Elmer).

Structure (SMILES)	IC50 [1] [µM]	IC50 (hIRE1a) [µM]
CCc1cc(-c2ccc3c(NC[C@H](O)CC)ncnn23)cc2cnc(N[C@H]3CCCNC3)nc12 [Compound I-20, (R)-1-((7-(8-ethyl-2-(((S)-piperidin-3-yl)amino)quinazolin-6-yl)pyrrolo[2,1-f][1,2,4]triazin-4-yl)amino)butan-2-ol]	0.1 to 1	1 to 10
CCc1cc(-c2ccc3c(NS(=O)(=O)Cc4cccc(F)c4F)ncnn23)cc2cnc(N[C@H]3CCCNC3)nc12 [Compound I-21, (S)-1-(2,3-difluorophenyl)-N-(7-(8-ethyl-2-(piperidin-3-ylamino)quinazolin-6-yl)pyrrolo[2,1-f][1,2,4]triazin-4-yl)methanesulfonamide]	< 0.1	< 1
CCc1cc(-c2ccc3c(NS(=O)(=O)c4ccccc4Cl)ncnn23)cc2cnc(N[C@H]3CCCNC3)nc12 [Compound I-22, (S)-2-chloro-N-(7-(8-ethyl-2-(piperidin-3-ylamino)quinazolin-6-yl)pyrrolo[2,1-f][1,2,4]triazin-4-yl)benzenesulfonamide]	< 0.1	< 1
CCc1cc(-c2csc3c(NS(=O)(=O)c4ccccc4Cl)ncnc23)cc2cnc(N[C@H]3CCCNC3)nc12 [Compound I-23, (S)-2-chloro-N-(7-(8-ethyl-2-(piperidin-3-ylamino)quinazolin-6-yl)thieno[3,2-d]pyrimidin-4-yl)benzenesulfonamide]	< 0.1	1 to 10
CCc1cc(-c2ccc3c(NS(=O)(=O)Cc4ccccc4Cl)ncnn23)cc2cnc(N[C@H]3CCCNC3)nc12 [Compound I-25, (S)-1-(2-chlorophenyl)-N-(7-(8-ethyl-2-(piperidin-3-ylamino)quinazolin-6-yl)pyrrolo[2,1-f][1,2,4]triazin-4-yl)methanesulfonamide]	< 0.1	< 1
CCc1cc(-c2ccc3c(NS(=O)(=O)c4ccccc4)ncnn23)cc2cnc(N[C@H]3CCCNC3)nc12 [Compound I-26, (S)—N-(7-(8-ethyl-2-(piperidin-3-ylamino)quinazolin-6-yl)pyrrolo[2,1-f][1,2,4]triazin-4-yl)benzenesulfonamide]	< 0.1	1 to 10
CCc1cc(-c2ccc3c(NS(=O)(=O)c4ccc(OC(F)(F)F)cc4)ncnn23)cc2cnc(N[C@H]3CCCNC3)nc12 [Compound I-27, (S)—N-(7-(8-ethyl-2-(piperidin-3-ylamino)quinazolin-6-yl)pyrrolo[2,1-f][1,2,4]triazin-4-yl)-4-(trifluoromethoxy)benzenesulfonamide]	0.1 to 1	1 to 10
CCc1cc(-c2ccc3c(NS(=O)(=O)c4ccccc4Cl)ncnn23)cc2cnc(NC3CC4(COC4)C3)nc12 [Compound I-28, N-(7-(2-((2-oxaspiro[3.3]heptan-6-yl)amino)-8-ethylquinazolin-6-yl)pyrrolo[2,1-f][1,2,4]triazin-4-yl)-2-chlorobenzenesulfonamide]	0.1 to 1	> 10
CCc1cc(-c2ccc3c(NS(=O)(=O)c4ccccc4Cl)ncnn23)cc2cnc(N[C@H]3CC[C@H](O)CC3)nc12 [Compound I-29, 2-chloro-N-(7-(8-ethyl-2-(((1r,4r)-4-hydroxycyclohexyl)amino)quinazolin-6-yl)pyrrolo[2,1-f][1,2,4]triazin-4-yl)benzenesulfonamide]	< 0.1	1 to 10
CCc1cc(-c2ccc3c(NS(=O)(=O)N4CCCC4)ncnn23)cc2cnc(N[C@H]3CCCNC3)nc12 [Compound I-30, Pyrrolidine-1-sulfonic acid {7-[8-ethyl-2-(piperidin-3-ylamino)-quinazolin-6-yl]-pyrrolo[2,1-f][1,2,4]triazin-4-yl}-amide]	< 0.1	< 1
CCc1cc(-c2ccc3c(NS(=O)(=O)c4ccccc4Cl)ncnn23)cc2cnc(N[C@@H]3CNC[C@H](C)C3)nc12 [Compound I-31]	< 0.1	< 1
CCc1cc(-c2ccc3c(NS(=O)(=O)c4ccccc4Cl)ncnn23)cc2cnc(N[C@H]3CC[C@H](N)CC3)nc12 [Compound I-32]	< 0.1	< 1
CCCS(=O)(=O)Nc1ncnn2c(-c3cc(CC)c4nc(N[C@H]5CCCNC5)ncc4c3)ccc12 [Compound I-33, (S)—N-(7-(8-ethyl-2-(piperidin-3-ylamino)quinazolin-6-yl)pyrrolo[2,1-f][1,2,4]triazin-4-yl)propane-1-sulfonamide]	< 0.1	< 1
